Where a name gives a salt, the structure may show the parent alone.

As usually defined, the LD50 is the dose expected to kill half of the subjects tested. A high value points to lower toxicity.

Data set [1] has as its system 6-hydroxydopamine-lesioned rats. The experiment in a line: turning behavior in 6-hydroxydopamine-lesioned rats (rat turning test, Parkinsonism). The conditions noted are these: intraperitoneal; for Average Number of Turns/rat: first 15 minutes after end of latency period. The class given is in vivo. How it is done: In this test, nigroneostriatal-lesioned rats are employed, as prepared by the procedure of Ungerstedt and Arbuthnott, Brain Res, 24, 485 (1970). A compound having dopamine agonist activity causes the rats to turn in circles contralateral to the side of the lesion. After a latency period, which varies from compound to compound, the number of turns is counted over a 15-minute period.
The compounds were dissolved in water and the aqueous solution injected into the rat by the intraperitoneal route at dose levels of 1 mg/kg. and 100 mcg/kg.

The subject of a further data set is prolactin. The experiment in a line: inhibition of prolactin secretion in reserpine-treated male rats (serum prolactin). The class given is in vivo, rat (Sprague-Dawley). The settings on record: intraperitoneal, one hour after treatment, reserpine-pretreated rats. How it is done: Adult male rats of the Sprague-Dawley strain weighing about 200 g. were housed in an air-conditioned room with controlled lighting (lights on 6 a.m.-8 p.m.) and fed lab chow and water ad libitum. Each rat received an intraperitoneal injection of 2.0 mg. of reserpine in aqueous suspension 18 hours before administration of the test drug. The purpose of the reserpine was to keep prolactin levels uniformly elevated. The compounds under test were dissolved in 10 percent ethanol, and were injected intraperitoneally at doses of 50 mcg/kg and 0.5 and 5 mg/kg. Each compound was administered at each dose level to a group of 10 rats, and a control group of 10 intact males received an equivalent amount of 10 percent ethanol. One hour after treatment, all rats were killed by decapitation, and 150 μl aliquots of serum were assayed for prolactin.

Data set [2] can be described thus: intraperitoneal lethality (LD50). The class given is in vivo. The procedure: In using the compounds of this invention to inhibit prolactin secretion or to treat Parkinson's syndrome or for other pharmacologic action, a compound according to Formula Ia or Ib above in which R is C1 -C3 alkyl or allyl and R^1 is H or CH2 X where X is OCH3, SCH3, SO2 CH3, CN or CONH2, or a salt thereof with a pharmaceutically-acceptable acid, is administered to a subject suffering from Parkinsonism or in need of having his or her prolactin level reduced in an amount effective to treat Parkinsonism or to reduce prolactin. Oral administration is preferred. If parenteral administration is used, the injection is preferably by the subcutaneous route using an appropriate pharmaceutical formulation. […] In particular, with intravenous or intramuscular administration, a water soluble pharmaceutically-acceptable salt is employed. For oral administration, the compound either as the free base or in the form of a salt thereof, can also be mixed with standard pharmaceutical excipients and loaded into empty telescoping gelatin capsules or pressed into tablets. The oral dosage range is from about 0.01 to 10 mg./kg. of mammalian weight and the parenteral dose range from about 0.0025 to 2.5 mg./kg.

Turning to `CCCN1CC(CSC)CC2Cc3n[nH]cc3CC21` (mixture of isomers) [trans-dl-5-n-Propyl-7-methylmercaptomethyl-4,4a,5,6,7,8,8a,9-octahydro-1H and 2H-pyrazolo[3,4-g]quinoline dihydrochloride], in data set [1] (1 mg./kg.), the “% of Rats Exhibiting Turning Behavior” value is recorded as 100% and the “Average Number of Turns/rat” value is 81 turns/rat. In data set [1] (100 mcg./kg.), the “% of Rats Exhibiting Turning Behavior” value worked out at 50% and the “Average Number of Turns/rat” value turned out to be 67 turns/rat.

Regarding `CCCN1CC(CSC)CC2Cc3n[nH]cc3CC21` (mixture of isomers) [trans-dl-5-n-Propyl-7-methylmercaptomethyl-4,4a,5,6,7,8,8a,9-octahydro-1H and 2H-pyrazolo[3,4-g]quinoline], the “Percent Prolactin Inhibition” value in the data set with prolactin (0.5 mg/kg) turned out to be 48%; with prolactin (5 mg/kg), 73%.

For `C=CCN1CCC[C@H]2Cc3n[nH]cc3C[C@@H]21` (relative stereo) [Trans-dl-5-allyl-4,4a,5,6,7,8,8a,9-octahydro-2-H(and 1H)-pyrazolo[3,4-g]quinoline dihydrochloride], in data set [1] (1 mg./kg.), the “% of Rats Exhibiting Turning Behavior” value came out at 100% and the “Average Number of Turns/rat” value worked out at 165 turns/rat. Further, in data set [1] (100 mcg./kg.), the “% of Rats Exhibiting Turning Behavior” value was determined as 0% and the “Average Number of Turns/rat” value was found to be 0 turns/rat.

Turning to `CN1CCC[C@H]2Cc3n[nH]cc3C[C@@H]21` (relative stereo) [trans-dl-5-methyl-4,4a,5,6,7,8,8a,9-octahydro-1H-(and 2H)-pyrazolo[3,4-g]quinoline dihydrochlorides], the “Percent Prolactin Inhibition” value was found to be 42% in the data set with prolactin (0.5 mg/kg) and 84% in the data set on prolactin (5 mg/kg).

With `CCCN1CCC[C@H]2Cc3[nH]ncc3C[C@@H]21` (relative stereo) [trans-dl-5-n-propyl-4,4a,5,6,7,8,8a,9-octahydro-1H and 2H-pyrazolo[3,4-g]quinoline dihydrochloride], in data set [2] (in vivo, ip, intraperitoneal), the LD50 was in the range of 100 to 300 mg/kg. Moreover, the results for the deaths entry in data set [2] (intraperitoneal dosages of 300 mg./kg.) and in data set [2] (intraperitoneal dosages of 10-100 mg./kg.) were “fatal” and “no deaths”, respectively.

(Values after patent US4198415A, “Prolactin inhibiting octahydro pyrazolo[3,4-g]quinolines” (Eli Lilly and Company, priority 1979, dated 1980).)
